Where “and” joins values, the source holds several entries; their conditions need not be identical. Equal entries are not always repeated. Entries after “also recorded” stand apart in the source; their conditions may differ. Where two headings read alike, the source gives them in different places. Where no end group is shown, it is not given here.
What was measured:
[1] = tested on: HIV-1 TAR RNA (biotinylated TAR 27-mer); format: binding
HIV-1 TAR RNA (27-mer) = format: binding
[2] = tested on: Tat ARM binding to HIV-1 TAR RNA
[3] = pH 7.5, read-out: KD (apparent)

| Substance | TAR binding in presence of tRNA [1] | fold difference in TAR-binding affinity [1] | fold increase in kon [1] | koff [1] | koff × 10^−2 [1] | kon [1] | kon × 10^2 ([1]; 0.625–20 μM) | Kd [1, 3] | Kd ([1]; read-out: KD) | Kd (HIV-1 TAR RNA (27-mer)) | ΔG° (HIV-1 TAR RNA (27-mer)) | ΔH° (HIV-1 TAR RNA (27-mer)) | −TΔS° (HIV-1 TAR RNA (27-mer)) | Kd (HIV-1 TAR RNA (27-mer); pH 7.5) | block of Tat ARM binding to TAR [2] |
| --- | --- | --- | --- | --- | --- | --- | --- | --- | --- | --- | --- | --- | --- | --- | --- |
| RRRTPR (also: sidechain bridge or staple (positions not given here)) [TB-CP-6.9a, cyclic peptide (11-mer] | capable of binding under this condition | ~6 -fold | 8 -fold | 0.024 ± 0.0001 s⁻¹ | 2.75 10^−2 s^−1 | 7463 ± 130 M⁻¹ s⁻¹ | 76.50 10^2 M^−1s^−1 | 3.6 µM | 3.2 ± 0.8 µM | 5 ± 0.6 µM | -7.1 ± 0.02 kcal/mol | −7.2 ± 0.2 kca/mol | 0.1 ± 0.2 kcal/mol | 5.3 ± 0.2 µM | formed a complex with TAR that occluded Tat-binding sites; also recorded: effectively block the interaction of TAR with the Tat ARM |
| PRQRTPRGQ (also: sidechain bridge or staple (positions not given here)) [TB-CP-6.7a, two terminal cysteines cross-linked via a methylene bridge] | – | – | – | 0.018 ± 0.0001 s⁻¹ | 1.90 10^−2 s^−1 | 863.0 ± 59.0 M⁻¹ s⁻¹ and 803 ± 14 M⁻¹ s⁻¹ | – | 22 µM | 23 ± 0.1 µM | – | – | – | – | – | – |

— PMC7864049, “Co-crystal structures of HIV TAR RNA bound to lab-evolved proteins show key roles for arginine relevant to the design of cyclic peptide TAR inhibitors” (The Journal of Biological Chemistry, 2021)
